This series in a line: RuAAC macrocyclisation of azide/terminal alkyne linear peptidomimetics to 1,5-triazole ([Cp*RuCl]4 0.1 eq, Ar-degassed), then Boc removal (TMSCl/MeOH GP4 or HCl/dioxane GP5). The settings on record: toluene (reflux), 1.25 mM, 111.0 °C, 18.0 h, 2 steps.

Take `COC(=O)[C@@H]1CCCn2nncc2CCCC(=O)NCCCC[C@H](N)C(=O)N1` [Boc-Lys(5-hexynoyl)-Orn(N3)-OMe]: for the setting “from C#CCCCC(=O)NCCCC[C@H](NC(=O)OC(C)(C)C)C(=O)N[C@@H](CCCN=[N+]=[N-])C(=O)OC, 18-membered ring”, the ring closure, yield over several steps is 99%.
For the setting “from C#CCNC(=O)NCCCC[C@H](NC(=O)OC(C)(C)C)C(=O)N[C@@H](CCCCNC(=O)[C@H](Cc1ccccc1)N=[N+]=[N-])C(=O)OC, 21-membered ring”, `COC(=O)[C@@H]1CCCCNC(=O)[C@H](Cc2ccccc2)n2nncc2CNC(=O)NCCCC[C@H](N)C(=O)N1` [Boc-Lys(CONH-propargyl)-Lys(N3-Phe)-OMe] gave a ring closure, yield over several steps of 81%.
Turning to `COC(=O)[C@@H]1Cc2ccc(cc2)-n2nncc2CCCC(=O)NCCC[C@H](N)C(=O)N1` [Boc-Orn(5-hexynoyl)-Phe(4-N3)-OMe], the ring closure, yield over several steps (from C#CCCCC(=O)NCCC[C@H](NC(=O)OC(C)(C)C)C(=O)N[C@@H](Cc1ccc(N=[N+]=[N-])cc1)C(=O)OC, 19-membered ring) is 97%.
`COC(=O)[C@@H]1CCCCn2nncc2CCCC(=O)Nc2ccc(cc2)C[C@H](N)C(=O)N1` [Boc-Phe(4-NH-5-hexynoyl)-Lys(N3)-OMe]: the ring closure, yield over several steps (from C#CCCCC(=O)Nc1ccc(C[C@H](NC(=O)OC(C)(C)C)C(=O)N[C@@H](CCCCN=[N+]=[N-])C(=O)OC)cc1, 20-membered ring) was 66%.
For the molecule `COC(=O)[C@@H]1CCCn2nncc2CCCC(=O)NCCC[C@H](N)C(=O)N1` [Boc-Orn(5-hexynoyl)-Orn(N3)-OMe], where the note is “from C#CCCCC(=O)NCCC[C@H](NC(=O)OC(C)(C)C)C(=O)N[C@@H](CCCN=[N+]=[N-])C(=O)OC, 17-membered ring”, the ring closure, yield over several steps is 99%.
For the molecule `COC(=O)[C@@H]1CCCCn2nncc2CNC(=O)NCCCC[C@H](N)C(=O)N1` [Boc-Lys(CONH-propargyl)-Lys(N3)-OMe], the ring closure, yield over several steps (from C#CCNC(=O)NCCCC[C@H](NC(=O)OC(C)(C)C)C(=O)N[C@@H](CCCCN=[N+]=[N-])C(=O)OC, 18-membered ring) was found to be 99%.
`COC(=O)[C@@H]1CNC(=O)[C@H](Cc2ccccc2)n2nncc2CCCC(=O)Nc2ccc(cc2)C[C@H](N)C(=O)N1` [Boc-Phe(4-NH-5-hexynoyl)-Dap(N3-Phe)-OMe] came in with a ring closure, yield over several steps (from C#CCCCC(=O)Nc1ccc(C[C@H](NC(=O)OC(C)(C)C)C(=O)N[C@@H](CNC(=O)[C@H](Cc2ccccc2)N=[N+]=[N-])C(=O)OC)cc1, 20-membered ring) of 15%.
Under “from C#CCCCC(=O)NCC[C@H](NC(=O)OC(C)(C)C)C(=O)N[C@@H](CCCCNC(=O)[C@H](Cc1ccccc1)N=[N+]=[N-])C(=O)OC, 20-membered ring”, `COC(=O)[C@@H]1CCCCNC(=O)[C@H](Cc2ccccc2)n2nncc2CCCC(=O)NCC[C@H](N)C(=O)N1` [Boc-Dab(5-hexynoyl)-Lys(N3-Phe)-OMe] showed a ring closure, yield over several steps of 87%.
For the molecule `COC(=O)[C@@H]1CCCCNC(=O)[C@H](Cc2ccccc2)n2nncc2CCCC(=O)Nc2ccc(cc2)C[C@H](N)C(=O)N1` [Boc-Phe(4-NH-5-hexynoyl)-Lys(N3-Phe)-OMe], the ring closure, yield over several steps (from C#CCCCC(=O)Nc1ccc(C[C@H](NC(=O)OC(C)(C)C)C(=O)N[C@@H](CCCCNC(=O)[C@H](Cc2ccccc2)N=[N+]=[N-])C(=O)OC)cc1, 23-membered ring) was 50%.
`COC(=O)[C@@H]1CCCCNC(=O)[C@H](Cc2ccccc2)n2nncc2CCCC(=O)NCCC[C@H](N)C(=O)N1` [Boc-Orn(5-hexynoyl)-Lys(N3-Phe)-OMe] had a ring closure, yield over several steps (from C#CCCCC(=O)NCCC[C@H](NC(=O)OC(C)(C)C)C(=O)N[C@@H](CCCCNC(=O)[C@H](Cc1ccccc1)N=[N+]=[N-])C(=O)OC, 21-membered ring) of 86%.
Under “from C#CCCC(=O)NCC[C@H](NC(=O)OC(C)(C)C)C(=O)N[C@@H](CCCN=[N+]=[N-])C(=O)OC, 15-membered ring”, `COC(=O)[C@@H]1CCCn2nncc2CCC(=O)NCC[C@H](N)C(=O)N1` [Boc-Dab(4-pentynoyl)-Orn(N3)-OMe] registered a ring closure, yield over several steps of 82%.
Under “from C#CCNC(=O)NCC[C@H](NC(=O)OC(C)(C)C)C(=O)N[C@@H](CCCN=[N+]=[N-])C(=O)OC, 15-membered ring”, `COC(=O)[C@@H]1CCCn2nncc2CNC(=O)NCC[C@H](N)C(=O)N1` [Boc-Dab(CONH-propargyl)-Orn(N3)-OMe] displayed a ring closure, yield over several steps of 99%.
Turning to `COC(=O)[C@@H]1CCCCn2nncc2CCCC(=O)NCCC[C@H](N)C(=O)N1` [Boc-Orn(5-hexynoyl)-Lys(N3)-OMe], the ring closure, yield over several steps (from C#CCCCC(=O)NCCC[C@H](NC(=O)OC(C)(C)C)C(=O)N[C@@H](CCCCN=[N+]=[N-])C(=O)OC, 18-membered ring) stood at 99%.
Turning to `COC(=O)[C@@H]1Cc2ccc(cc2)-n2nncc2CNC(=O)NCC[C@H](N)C(=O)N1` [Boc-Dab(CONH-propargyl)-Phe(4-N3)-OMe], the ring closure, yield over several steps (from C#CCNC(=O)NCC[C@H](NC(=O)OC(C)(C)C)C(=O)N[C@@H](Cc1ccc(N=[N+]=[N-])cc1)C(=O)OC, 17-membered ring) turned out to be 40%.
For the setting “from C#CCNC(=O)NC[C@H](NC(=O)OC(C)(C)C)C(=O)N[C@@H](Cc1ccc(N=[N+]=[N-])cc1)C(=O)OC, 16-membered ring”, `COC(=O)[C@@H]1Cc2ccc(cc2)-n2nncc2CNC(=O)NC[C@H](N)C(=O)N1` [Boc-Dap(CONH-propargyl)-Phe(4-N3)-OMe] showed a ring closure, yield over several steps of 27%.
Under “from C#CCCC(=O)Nc1ccc(C[C@H](NC(=O)OC(C)(C)C)C(=O)N[C@@H](CCCCNC(=O)[C@H](Cc2ccccc2)N=[N+]=[N-])C(=O)OC)cc1, 22-membered ring”, `COC(=O)[C@@H]1CCCCNC(=O)[C@H](Cc2ccccc2)n2nncc2CCC(=O)Nc2ccc(cc2)C[C@H](N)C(=O)N1` [Boc-Phe(4-NH-4-pentynoyl)-Lys(N3-Phe)-OMe] had a ring closure, yield over several steps of 57%.
The molecule `COC(=O)[C@@H]1CCCCn2nncc2CCC(=O)NCCC[C@H](N)C(=O)N1` [Boc-Orn(4-pentynoyl)-Lys(N3)-OMe] came in with a ring closure, yield over several steps (from C#CCCC(=O)NCCC[C@H](NC(=O)OC(C)(C)C)C(=O)N[C@@H](CCCCN=[N+]=[N-])C(=O)OC, 17-membered ring) of 82%.
The molecule `COC(=O)[C@@H]1CCCCn2nncc2CCCC(=O)NCC[C@H](N)C(=O)N1` [Boc-Dab(5-hexynoyl)-Lys(N3)-OMe] returned a ring closure, yield over several steps (from C#CCCCC(=O)NCC[C@H](NC(=O)OC(C)(C)C)C(=O)N[C@@H](CCCCN=[N+]=[N-])C(=O)OC, 17-membered ring) of 99%.
In the case of `COC(=O)[C@@H]1CCCn2nncc2CCC(=O)Nc2ccc(cc2)C[C@H](N)C(=O)N1` [Boc-Phe(4-NH-4-pentynoyl)-Orn(N3)-OMe], the ring closure, yield over several steps (from C#CCCC(=O)Nc1ccc(C[C@H](NC(=O)OC(C)(C)C)C(=O)N[C@@H](CCCN=[N+]=[N-])C(=O)OC)cc1, 18-membered ring) was determined as 44%.
`COC(=O)[C@@H]1CCCCNC(=O)[C@H](Cc2ccccc2)n2nncc2CNC(=O)NCC[C@H](N)C(=O)N1` [Boc-Dab(CONH-propargyl)-Lys(N3-Phe)-OMe] came in with a ring closure, yield over several steps (from C#CCNC(=O)NCC[C@H](NC(=O)OC(C)(C)C)C(=O)N[C@@H](CCCCNC(=O)[C@H](Cc1ccccc1)N=[N+]=[N-])C(=O)OC, 19-membered ring) of 78%.
`COC(=O)[C@@H]1CCCn2nncc2CNC(=O)NCCC[C@H](N)C(=O)N1` [Boc-Orn(CONH-propargyl)-Orn(N3)-OMe] came in with a ring closure, yield over several steps (from C#CCNC(=O)NCCC[C@H](NC(=O)OC(C)(C)C)C(=O)N[C@@H](CCCN=[N+]=[N-])C(=O)OC, 16-membered ring) of 99%.
As for `COC(=O)[C@@H]1CNC(=O)[C@H](Cc2ccccc2)n2nncc2CCCC(=O)NCCCC[C@H](N)C(=O)N1` [Boc-Lys(5-hexynoyl)-Dap(N3-Phe)-OMe], the ring closure, yield over several steps (from C#CCCCC(=O)NCCCC[C@H](NC(=O)OC(C)(C)C)C(=O)N[C@@H](CNC(=O)[C@H](Cc1ccccc1)N=[N+]=[N-])C(=O)OC, 19-membered ring) came to 99%.
For the setting “from C#CCCCC(=O)NCC[C@H](NC(=O)OC(C)(C)C)C(=O)N[C@@H](CCCN=[N+]=[N-])C(=O)OC, 16-membered ring”, `COC(=O)[C@@H]1CCCn2nncc2CCCC(=O)NCC[C@H](N)C(=O)N1` [Boc-Dab(5-hexynoyl)-Orn(N3)-OMe] displayed a ring closure, yield over several steps of 99%.
Molecule `COC(=O)[C@@H]1CCCCNC(=O)[C@H](Cc2ccccc2)n2nncc2CCCC(=O)NCCCC[C@H](N)C(=O)N1` [Boc-Lys(5-hexynoyl)-Lys(N3-Phe)-OMe] came in with a ring closure, yield over several steps (from C#CCCCC(=O)NCCCC[C@H](NC(=O)OC(C)(C)C)C(=O)N[C@@H](CCCCNC(=O)[C@H](Cc1ccccc1)N=[N+]=[N-])C(=O)OC, 22-membered ring) of 60%.
For the setting “from C#CCNC(=O)NC[C@H](NC(=O)OC(C)(C)C)C(=O)N[C@@H](CNC(=O)[C@H](Cc1ccccc1)N=[N+]=[N-])C(=O)OC, 15-membered ring”, `COC(=O)[C@@H]1CNC(=O)[C@H](Cc2ccccc2)n2nncc2CNC(=O)NC[C@H](N)C(=O)N1` [Boc-Dap(CONH-propargyl)-Dap(N3-Phe)-OMe] displayed a ring closure, yield over several steps of 40%.

These data come from paper PMC4441267.
